Source: US20080300235A1, “FXR Agonists for Reducing LOX-1 Expression” (Wyeth, priority 2007, published 2008)

Key:
[1] = system: soluble LOX-1 (sLOX-1); assay: Serum soluble LOX-1 (sLOX-1) by ELISA based assay in mouse strains; assay type: in vivo; details: FIG. 5B
From the text: Moreover, the expression of soluble LOX-1 (sLOX-1) in the serum was also monitored using an ELISA based assay after Compound A treatment. […] (FIG. 5B).

[2] = system: LOX-1; assay: LOX-1 expression in liver and kidney of diabetic KKAy mice; assay type: in vivo, mouse
Experimental: To determine whether FXR agonists could block LOX-1 gene expression under other settings, the regulation of LOX-1 by FXR was studied in the diabetic mouse strain, KKAy. […] The renal regulation of LOX-1 was also determined since FXR is also expressed in the kidney.

[3] = system: LOX-1; assay: Hepatic LOX-1 gene expression by real-time PCR in FXR KO or wildtype mice; assay type: in vivo, mouse; details: male FXR KO or wildtype mice, chow diet with 0.5% chenodeoxycholic acid (CA), 30 mpk orally daily 7 days, FIG. 6
Experimental: (§1) Male FXR deficient (FXR KO) or wildtype mice on a chow diet supplemented with 0.5% chenodeoxycholic acid (CA) were treated orally daily with 30 mpk of Compound A for 7 days, and hepatic gene expression of LOX-1 and VCAM-1 was determined by real-time PCR.

[4] = system: LOX-1; assay: Hepatic LOX-1 mRNA expression in LDLR-/- mice fed a western diet; assay type: in vivo, mouse; details: liver, LDLR-/- (LDLRKO) mice, western diet 7 days, increasing concentrations of compound, FIG. 1
From the text: (§2) Since LOX-1 is regulated by oxLDL, LOX-1 mRNA expression was monitored in liver from LDLR−/− (LDLRKO) mice fed a western diet for 7 days.

[5] = system: CD36; assay: Expression of oxLDL hepatic scavenger receptor CD36 (FIG. 3); assay type: in vivo, mouse; details: specificity control
From the text: as §2
Importantly, the regulation of LOX-1 by FXR was specific, since expression of another oxLDL hepatic scavenger receptor, CD36, was not affected by compound A (FIG. 3).

[6] = system: VCAM-1; assay: Hepatic VCAM-1 gene expression by real-time PCR in FXR KO or wildtype mice; assay type: in vivo, mouse; details: male FXR KO or wildtype mice, chow diet with 0.5% chenodeoxycholic acid (CA), 30 mpk orally daily 7 days, FIG. 6
Experimental: as §1

[7] = system: VCAM-1; assay: Expression of LOX-1 target gene VCAM-1 (FIG. 2); assay type: in vivo, mouse

Question: How did the “sLOX-1 reduction in FXR KO mouse strain” value ([1]; FXR KO mouse strain) turn out when `CC(C)OC(=O)C1=CN(C(=O)c2ccc(F)c(F)c2)CC(C)(C)c2c1[nH]c1ccccc21` [Compound A, isopropyl 3-(3,4-difluorobenzoyl)-1,1-dimethyl-1,2,3,6-tetrahydroazepino[4,5-b]indole-5-carboxylate] was run?
Answer: dependent upon FXR

Question: What about the “serum sLOX-1” value ([1]; various mouse strains, high fat diet, 30 mpk orally daily for 7 days) of the same compound?
Answer: significantly reduced

Question: And the “hepatic LOX-1 expression” value ([2]; chow diet, 7 days treatment, FIG. 4A)?
Answer: significant repression

Question: And the “renal LOX-1 expression” value ([2]; kidney, FIG. 4B)?
Answer: significantly inhibited

Question: And the “inhibition of hepatic LOX-1 gene expression, FXR KO vs wildtype” value [3]?
Answer: dependent upon FXR

Question: And the “LOX-1 mRNA induction by the western diet” value [4]?
Answer: dose dependently inhibited

Question: And the CD36 expression [5]?
Answer: not affected

Question: What about the “inhibition of hepatic VCAM-1 gene expression, FXR KO vs wildtype” value [6] of the same compound?
Answer: dependent upon FXR

Question: And the “VCAM-1 (LOX-1 target gene) expression” value [7]?
Answer: significantly inhibited
